Read-outs that look alike come from different tables or passages of the source.
Tests used:
[1] = system: recombinant guanylate cyclase reporter cell line; assay: sGC-activating activity in the CHO reporter cell in vitro; format: cell-based; details: read-out: MEC (minimum effective concentration)
Description: B-2. Action at a Recombinant Guanylate Cyclase Reporter Cell Line
The cellular action of the compounds according to the invention is determined at a recombinant guanylate cyclase reporter cell line, as described in F. Wunder et al., Anal. Biochem. 32, 104-112 (2005).

saphenous artery rings = assay: Vasorelaxant effect in vitro (phenylephrine-contracted saphenous artery rings); parameters: species or system Rabbits; details: rabbit saphenous artery rings, read-out: IC50 (concentration reducing phenylephrine-induced contraction by 50%)
Description: B-3. Vasorelaxant Effect In Vitro
Rabbits are anaesthetized and sacrificed by intravenous injection of thiopental sodium (about 50 mg/kg) and exsanguinated. The saphenous artery is removed and divided into rings 3 mm wide. The rings are mounted singly on in each case a pair of triangular hooks open at the end and made of 0.3 mm-thick special wire (Remanium®). Each ring is placed under an initial tension in 5 ml organ baths with Krebs-Henseleit solution which is at 37° C., is gassed with carbogen and has the following composition: NaCl 119 mM; KCl 4.8 mM; CaCl2×2 H2O 1 mM; MgSO4×7H2O 1.4 mM; KH2PO4 1.2 mM; NaHCO3 25 mM; glucose 10 mM; bovine serum albumin 0.001%. The force of contraction is detected with Statham UC2 cells, amplified and digitized via A/D converters (DAS-1802 HC, Keithley Instruments, Munich) and recorded in parallel on chart recorders. Contractions are induced by addition of phenylephrine.
After several (generally 4) control cycles, the substance to be investigated is added in each further run in increasing dosage, and the level of the contraction achieved under the influence of the test substance is compared with the level of the contraction reached in the last preceding run. The concentration necessary to reduce the contraction reached in the preceding control by 50% is calculated from this (IC50). The standard application volume is 5 μl. The proportion of DMSO in the bath solution corresponds to 0.1%.

[2] = target: T1, haem-free recombinant soluble guanylate cyclase (sGC) (Rattus norvegicus, UniProt P20595); assay: Stimulation of recombinant soluble guanylate cyclase (sGC) in vitro, haem-free enzyme; format: biochemical
T1 construct: made in house; host or cells: Sf9 insect cells (baculovirus)
T1 sequence (P20595 1-619): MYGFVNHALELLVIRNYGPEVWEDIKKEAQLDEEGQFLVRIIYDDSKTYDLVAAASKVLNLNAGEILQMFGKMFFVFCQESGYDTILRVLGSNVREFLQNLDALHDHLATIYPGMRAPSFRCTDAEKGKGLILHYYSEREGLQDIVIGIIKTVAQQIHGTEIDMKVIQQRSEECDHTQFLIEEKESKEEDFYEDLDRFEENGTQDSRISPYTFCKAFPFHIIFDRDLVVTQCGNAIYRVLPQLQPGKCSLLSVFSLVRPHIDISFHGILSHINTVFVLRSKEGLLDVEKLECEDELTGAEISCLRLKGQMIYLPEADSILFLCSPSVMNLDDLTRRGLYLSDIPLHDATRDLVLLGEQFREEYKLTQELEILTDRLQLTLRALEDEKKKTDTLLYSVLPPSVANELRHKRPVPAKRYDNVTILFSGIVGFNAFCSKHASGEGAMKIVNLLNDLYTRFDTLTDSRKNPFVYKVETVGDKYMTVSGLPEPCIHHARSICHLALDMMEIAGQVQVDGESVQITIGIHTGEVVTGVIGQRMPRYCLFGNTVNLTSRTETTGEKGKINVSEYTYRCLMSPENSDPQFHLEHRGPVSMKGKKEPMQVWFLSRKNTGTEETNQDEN
T1 sequence (P19686 1-690 partner): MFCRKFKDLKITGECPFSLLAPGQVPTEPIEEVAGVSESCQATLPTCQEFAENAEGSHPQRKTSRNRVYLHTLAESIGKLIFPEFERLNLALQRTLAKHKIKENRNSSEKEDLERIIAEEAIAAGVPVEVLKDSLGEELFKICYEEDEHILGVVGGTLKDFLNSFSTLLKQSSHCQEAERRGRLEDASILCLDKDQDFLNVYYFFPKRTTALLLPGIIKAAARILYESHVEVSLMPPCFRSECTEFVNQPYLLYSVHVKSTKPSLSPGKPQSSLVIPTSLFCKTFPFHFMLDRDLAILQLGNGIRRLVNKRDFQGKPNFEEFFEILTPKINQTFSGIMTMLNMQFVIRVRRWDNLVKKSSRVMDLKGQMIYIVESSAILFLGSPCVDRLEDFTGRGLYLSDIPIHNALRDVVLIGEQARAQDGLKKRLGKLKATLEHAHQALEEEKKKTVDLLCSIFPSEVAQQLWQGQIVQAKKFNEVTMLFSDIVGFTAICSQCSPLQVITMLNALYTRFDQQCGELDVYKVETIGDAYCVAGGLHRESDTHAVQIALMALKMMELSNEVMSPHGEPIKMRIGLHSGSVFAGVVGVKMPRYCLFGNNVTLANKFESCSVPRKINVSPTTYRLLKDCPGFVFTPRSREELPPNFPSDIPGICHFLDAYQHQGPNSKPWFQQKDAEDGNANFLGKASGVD
Description: (§1) B-1. Stimulation of Recombinant Soluble Guanylate Cyclase (sGC) In Vitro
(§2) Investigations on the stimulation of recombinant soluble guanylate cyclase (sGC) by the compounds according to the invention with and without sodium nitroprusside, and with and without the haem-dependent sGC inhibitor 1H-1,2,4-oxadiazolo[4,3a]quinoxalin-1-one (ODQ), are carried out by the method described in detail in the following reference: M. Hoenicka, E. M. Becker, H. Apeler, T. Sirichoke, H. Schroeder, R. Gerzer and J.-P. Stasch, “Purified soluble guanylyl cyclase expressed in a baculovirus/Sf9 system: Stimulation by YC-1, nitric oxide, and carbon oxide”, J. Mol. Med 77 (1999), 14-23. The haem-free guanylate cyclase is obtained by adding Tween 20 to the sample buffer (0.5% in the final concentration).
The activation of sGC by a test substance is reported as x-fold stimulation of the basal activity. The result for Example 2 is shown in Table 1A, that for Example 23 in Table 1B and that for Example 39 in Table 1C: […]

[3] = target: T2, haem-containing recombinant soluble guanylate cyclase (sGC) (Rattus norvegicus, UniProt P20595); assay: Stimulation of recombinant soluble guanylate cyclase (sGC) in vitro, haem-containing enzyme; format: biochemical
T2 construct: made in house; host or cells: Sf9 insect cells (baculovirus)
T2 sequence (P20595 1-619): T1 sequence (P20595 1-619)
T2 sequence (P19686 1-690 partner): T1 sequence (P19686 1-690 partner)
Description: as §1, §2
The activation of sGC by a test substance is reported as x-fold stimulation of the basal activity. The result for Example 2 is shown in Table 1A, that for Example 23 in Table 1B and that for Example 39 in Table 1C:
[DEA/NO=2-(N,N-diethylamino)diazenolate 2-oxide; ODQ=1H-1,2,4-oxadiazolo-[4,3a]quinoxalin-1-one].

CC(C)(C)c1ccc(COc2ccccc2CCN(CCCCC(=O)O)C2CCCc3nc(C(=O)O)ccc32)cc1 (single isomer, unassigned) [Example 4]
minimal effective concentration [1]: 0.5 nM | IC50 (saphenous artery rings; Oryctolagus cuniculus): 0.3 nM

O=C(O)CCCCN(CCc1ccccc1OCc1ccc(CCc2ccccc2)cc1)C1CCCc2nc(C(=O)O)ccc21 (single isomer, unassigned) [Example 14]
minimal effective concentration [1]: 30 nM | IC50 (saphenous artery rings): 41.8 nM

O=C(O)CCCCN(CCc1ccccc1OCc1ccc(CCc2ccc(F)cc2)cc1)C1CCCc2nc(C(=O)O)ccc21 (single isomer, unassigned) [Example 15]
minimal effective concentration [1]: 0.3 nM | IC50 (saphenous artery rings): 0.2 nM

O=C(O)CCCCN(CCc1ccccc1OCc1ccc(CCc2ccc(F)cc2)cc1)C1CCCc2nc(C(=O)O)ccc21 (single isomer, unassigned) [Example 16]
minimal effective concentration [1]: 3 nM | IC50 (saphenous artery rings): 15.5 nM

O=C(O)c1ccc(CCN(CCc2ccccc2OCc2ccc(-c3ccc(C(F)(F)F)cc3)cc2Cl)C2CCCc3nc(C(=O)O)ccc32)cc1 (single isomer, unassigned; enantiomer 2) [Example 23, 5-{[2-(4-Carboxyphenyl)ethyl][2-(2-{[3-chloro-4′-(trifluoromethyl)biphenyl-4-yl]methoxy}-phenyl)ethyl]amino}-5,6,7,8-tetrahydroquinoline-2-carboxylic acid (Enantiomer 2)]
minimal effective concentration [1]: 0.7 nM | Stimulation (x-fold), haem-free sGC, basal ([2]; test compound 0.01 μM): 52.5 ± 3.8 x-fold | Stimulation (x-fold), haem-free sGC, basal ([2]; test compound 0.1 μM): 184.3 ± 15.4 x-fold | Stimulation (x-fold), haem-free sGC, basal ([2]; test compound 1.0 μM): 284.7 ± 18.8 x-fold | Stimulation (x-fold), haem-free sGC, basal ([2]; test compound 10 μM): 310.4 ± 22.6 x-fold | Stimulation (x-fold), haem-free sGC, basal ([2]; test compound 100 μM): 342.0 ± 27.6 x-fold | Effect of combination with the NO donor DEA/NO on sGC stimulation [3]: no synergistic effect | Stimulation (x-fold), haem-containing sGC, basal ([3]; test compound 0.01 μM): 8.3 ± 1.1 x-fold | Stimulation (x-fold), haem-containing sGC, +0.1 μM DEA/NO ([3]; test compound 0.01 μM): 24.5 ± 4.4 x-fold | Stimulation (x-fold), haem-containing sGC, +10 μM ODQ ([3]; test compound 0.01 μM): 16.9 ± 3.3 x-fold | Stimulation (x-fold), haem-containing sGC, basal ([3]; test compound 0.1 μM): 54.2 ± 11.9 x-fold | Stimulation (x-fold), haem-containing sGC, +0.1 μM DEA/NO ([3]; test compound 0.1 μM): 77.1 ± 9.2 x-fold | Stimulation (x-fold), haem-containing sGC, +10 μM ODQ ([3]; test compound 0.1 μM): 105.4 ± 18.0 x-fold | Stimulation (x-fold), haem-containing sGC, basal ([3]; test compound 1.0 μM): 108.7 ± 16.3 x-fold | Stimulation (x-fold), haem-containing sGC, +0.1 μM DEA/NO ([3]; test compound 1.0 μM): 155.2 ± 20.7 x-fold | Stimulation (x-fold), haem-containing sGC, +10 μM ODQ ([3]; test compound 1.0 μM): 216.1 ± 28.9 x-fold | Stimulation (x-fold), haem-containing sGC, basal ([3]; test compound 10 μM): 135.7 ± 20.0 x-fold | Stimulation (x-fold), haem-containing sGC, +0.1 μM DEA/NO ([3]; test compound 10 μM): 180.4 ± 22.9 x-fold | Stimulation (x-fold), haem-containing sGC, +10 μM ODQ ([3]; test compound 10 μM): 227.0 ± 31.7 x-fold | Stimulation (x-fold), haem-containing sGC, basal ([3]; test compound 100 μM): 180.5 ± 21.2 x-fold | Stimulation (x-fold), haem-containing sGC, +0.1 μM DEA/NO ([3]; test compound 100 μM): 241.0 ± 34.4 x-fold | Stimulation (x-fold), haem-containing sGC, +10 μM ODQ ([3]; test compound 100 μM): 261.7 ± 32.1 x-fold

O=C(O)c1ccc(CCN(CCc2cc(F)ccc2OCc2ccc(-c3nc4cc(Cl)ccc4o3)cc2)C2CCCc3nc(C(=O)O)ccc32)cc1 (single isomer, unassigned; enantiomer 2) [Example 39, 5-{[2-(4-Carboxyphenyl)ethyl][2-(2-{[4-(5-chloro-1,3-benzoxazol-2-yl)benzyl]oxy}-5-fluorophenyl)ethyl]amino}-5,6,7,8-tetrahydroquinoline-2-carboxylic acid (Enantiomer 2)]
minimal effective concentration [1]: 1 nM | Stimulation (x-fold), haem-free sGC, basal ([2]; test compound 0.01 μM): 39.0 ± 5.8 x-fold | Stimulation (x-fold), haem-free sGC, basal ([2]; test compound 0.1 μM): 176.9 ± 29.9 x-fold | Stimulation (x-fold), haem-free sGC, basal ([2]; test compound 1.0 μM): 284.9 ± 54.5 x-fold | Stimulation (x-fold), haem-free sGC, basal ([2]; test compound 10 μM): 311.5 ± 55.9 x-fold | Stimulation (x-fold), haem-free sGC, basal ([2]; test compound 100 μM): 309.4 ± 54.8 x-fold | Effect of combination with the NO donor DEA/NO on sGC stimulation [3]: no synergistic effect | Stimulation (x-fold), haem-containing sGC, basal ([3]; test compound 0.01 μM): 17.4 ± 2.4 x-fold | Stimulation (x-fold), haem-containing sGC, +0.1 μM DEA/NO ([3]; test compound 0.01 μM): 46.5 ± 2.8 x-fold | Stimulation (x-fold), haem-containing sGC, +10 μM ODQ ([3]; test compound 0.01 μM): 42.0 ± 4.9 x-fold | Stimulation (x-fold), haem-containing sGC, basal ([3]; test compound 0.1 μM): 73.0 ± 7.7 x-fold | Stimulation (x-fold), haem-containing sGC, +0.1 μM DEA/NO ([3]; test compound 0.1 μM): 115.5 ± 11.9 x-fold | Stimulation (x-fold), haem-containing sGC, +10 μM ODQ ([3]; test compound 0.1 μM): 145.6 ± 14.7 x-fold | Stimulation (x-fold), haem-containing sGC, basal ([3]; test compound 1.0 μM): 96.6 ± 8.5 x-fold | Stimulation (x-fold), haem-containing sGC, +0.1 μM DEA/NO ([3]; test compound 1.0 μM): 145.2 ± 15.9 x-fold | Stimulation (x-fold), haem-containing sGC, +10 μM ODQ ([3]; test compound 1.0 μM): 182.5 ± 17.6 x-fold | Stimulation (x-fold), haem-containing sGC, basal ([3]; test compound 10 μM): 108.6 ± 9.0 x-fold | Stimulation (x-fold), haem-containing sGC, +0.1 μM DEA/NO ([3]; test compound 10 μM): 159.4 ± 17.9 x-fold | Stimulation (x-fold), haem-containing sGC, +10 μM ODQ ([3]; test compound 10 μM): 188.7 ± 16.5 x-fold | Stimulation (x-fold), haem-containing sGC, basal ([3]; test compound 100 μM): 143.6 ± 13.4 x-fold | Stimulation (x-fold), haem-containing sGC, +0.1 μM DEA/NO ([3]; test compound 100 μM): 192.1 ± 24.6 x-fold | Stimulation (x-fold), haem-containing sGC, +10 μM ODQ ([3]; test compound 100 μM): 208.5 ± 19.0 x-fold

O=C(O)CCCCN(CCc1ccccc1OCc1ccc([C@H]2CC[C@H](C(F)(F)F)CC2)cc1)C1CCCc2nc(C(=O)O)ccc21 (some centres unmarked) [Example 11]
minimal effective concentration [1]: 0.3 nM
